Laboratory results from patent US5166166A, “3-dicyclohexylaminosydnone imines, process for their preparation and their use” (Cassella Aktiengesellschaft, priority 1990, dated 1992).

System: spiral strips of the pulmonary artery of the guinea-pig
Assay: relaxing action on potassium-depolarised, CaCl2-contracted spiral strips of the pulmonary artery (modified method of Godfraind and Kaba and of Schuman et al.)
Type: cell-based
Conditions: for IC50: Cavia porcellus, guinea-pig pulmonary artery strips, 40 mmol/l potassium, contraction by 0.5 mmol/l CaCl2, cumulative addition, average of 4 to 6 vessel strips, read-out: IC50 (concentration of the test substance which inhibits the contraction by 50%); for Duration of action: time needed after addition of the test substance until the starting value is obtained again
Experimental: The pharmacological action of the compounds of the formula I was determined by a modified method of Godfraind and Kaba (Arch. Int. Pharmacodyn. Ther. 196, (Suppl) 35 to 49, 1972) and of Schuman et al. (Naunyn-Schmiedeberg's Arch. Pharmacol. 289, 409 to 418, 1975). In this connection, spiral strips of the pulmonary artery of the guinea-pig are depolarised with 40 mmol/l of potassium after equilibration in calcium-free Tyrode solution. An addition of 0.5 mmol/l of CaCl2 then induces a contraction. The relaxing action of the test substance is determined by cumulative addition in 1/2 log 10 stepped concentrations. From the concentration-effect curve (abscissa: -log mol/l of test substance, ordinate: % inhibition of the maximum contraction, average value of 4 to 6 vessel strips), the concentration of the test substance is determined which inhibits the contraction by 50% (=IC50, mol/l). The duration of action of the test substance is given by the time which is needed after the addition of the test substance until the starting value is obtained again.

| SMILES | IC50 [nM] | Duration of action [min] |
| --- | --- | --- |
| CCOC(=O)[N-]c1cn(N2CCOCC2)n[o+]1 [Molsidomine, NEthoxycarbonyl-3-morpholinosydnone imine, reference compound] | 300000 | 120 |
| CC(C)(C)C(=O)[N-]c1c[n+](N(C2CCCCC2)C2CCCCC2)no1 [N-Pivaloyl-3-dicyclohexylaminosydnone imine] | 5000 | 310 |
| COc1ccc(C(=O)[N-]c2c[n+](N(C3CCCCC3)C3CCCCC3)no2)cc1 [N-p-Anisoyl-3-dicyclohexylaminosydnone imine] | 3000 | 300 |

Second part, led by results:

| IC50 [nM] | SMILES | Duration of action [min] |
| --- | --- | --- |
| 400 | Cl.N=c1c[n+](N(C2CCCCC2)C2CCCCC2)[n-]o1 [3-Dicyclohexylaminosydnone imine hydrochloride] | 270 |
| 1000 | Cl.N=c1c[n+](N2CCOCC2)[n-]o1 [SIN-1, 3Morpholinosydnone imine hydrochloride, reference compound] | 90 |
